This note sets out measurements from ChEMBL document CHEMBL5728527, “Naphthyridines as inhibitors of HPK1” (2021).

Usually Ki stands for a dissociation constant, usually derived from enzyme kinetics or from competition with a known ligand. A high value points to weaker binding.

This experiment addresses Mitogen-activated protein kinase kinase kinase kinase 1 (Homo sapiens, UniProt Q92918). The experiment in a line: Binding Assay: Lanth: For the binding assay, 4 ul 2×HPK1 and Eu-anti-GST antibody were added to each well of the assay plate using a Multidrop reagent dispenser. The solutions were incubated in a 23 C incubator for 1 h. To each well of the assay plate was added 4 ul 2× Tracer-222 using a Multidrop reagent dispenser. The solutions were again incubated in a 23 C incubator for 1 h. The results of the assay were read using an Envision plate reader with the following parameters: TR_FRET, 340ex/615 and 665em; 100 usec Delay; and 200 usec integration.

Chain of Mitogen-activated protein kinase kinase kinase kinase 1 (Q92918 whole entry): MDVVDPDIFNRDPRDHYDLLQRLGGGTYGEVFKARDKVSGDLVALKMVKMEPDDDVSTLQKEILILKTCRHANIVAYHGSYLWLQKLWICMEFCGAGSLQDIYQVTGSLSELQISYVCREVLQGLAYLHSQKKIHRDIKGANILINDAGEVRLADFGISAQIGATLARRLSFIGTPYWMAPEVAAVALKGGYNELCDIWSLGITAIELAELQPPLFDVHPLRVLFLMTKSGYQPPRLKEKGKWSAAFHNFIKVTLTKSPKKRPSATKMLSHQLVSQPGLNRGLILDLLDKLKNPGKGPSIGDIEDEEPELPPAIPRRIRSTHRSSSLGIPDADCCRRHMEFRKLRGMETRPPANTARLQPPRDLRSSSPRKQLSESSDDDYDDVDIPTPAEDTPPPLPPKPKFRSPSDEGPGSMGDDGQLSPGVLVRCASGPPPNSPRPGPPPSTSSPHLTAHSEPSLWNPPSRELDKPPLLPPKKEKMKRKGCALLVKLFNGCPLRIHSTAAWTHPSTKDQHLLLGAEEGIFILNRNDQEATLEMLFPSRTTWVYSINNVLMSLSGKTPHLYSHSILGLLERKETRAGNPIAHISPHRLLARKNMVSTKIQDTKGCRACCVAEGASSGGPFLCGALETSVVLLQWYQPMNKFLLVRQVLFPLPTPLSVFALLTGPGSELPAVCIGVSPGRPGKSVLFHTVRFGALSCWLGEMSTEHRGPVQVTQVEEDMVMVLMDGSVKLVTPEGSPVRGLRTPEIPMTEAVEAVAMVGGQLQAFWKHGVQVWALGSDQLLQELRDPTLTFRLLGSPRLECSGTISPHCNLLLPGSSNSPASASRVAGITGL

For the molecule `Cc1ccncc1-c1cc2cc(NC(=O)[C@@H]3C[C@H]3F)ncc2c(N)n1` (single isomer, unassigned), the Ki was 2.8 nM.

`Cc1ccncc1-c1cc2cc(NC(=O)[C@@H]3C[C@H]3C#N)ncc2c(N)n1` (single isomer, unassigned) had a Ki of 4.06 nM.

In turn, `CCc1ccncc1-c1cc2cc(NC(=O)[C@H]3C[C@H]3C#N)ncc2c(N)n1` (single isomer, unassigned) showed a Ki of 3.64 nM.

On to `CCc1ccncc1-c1cc2cc(NC(=O)[C@@H]3C[C@H]3C#N)ncc2c(N)n1` (single isomer, unassigned), for which the Ki amounted to 7.36 nM.

As to `Cc1ccncc1-c1cc2cc(NC(=O)[C@H]3[C@@H]4COC[C@@H]43)ncc2c(N)n1` (single isomer, unassigned), the Ki was found to be 4.9 nM.
